# Assay results as given in patent US12209102B2, “Heterocyclic compounds and uses thereof” (Kumquat Biosciences Inc., priority 2022, dated 2025).
# Key:
# [1] = target: T1, K-Ras G12D (Homo sapiens, UniProt P01116, G12D); test: HTRF resonance energy transfer assay, K-Ras G12D / SOS1 interaction; type: biochemical; details: HTRF assay of Example 5; read-out: IC50 against K-Ras G12D
# T1 construct: made in house; host or cells: E. coli BL21 (DE3)
# In short: (§1)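 Read-out: HTRF 665/620 nm ratio (excitation 337 nm) after roughly 10 min or longer incubation, used to derive IC50. Donor anti-GST-Eu on GST-K-Ras; acceptor anti-6His-XL665 on His-hSOS1. Duplicate dose series from 10 μM down to 0.01 μM.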
# [2] = target: T2, K-Ras G12S (Homo sapiens, UniProt P01116, G12S); test: HTRF resonance energy transfer assay, K-Ras G12S / SOS1 interaction; type: biochemical; details: HTRF assay of Example 5; read-out: IC50 against K-Ras G12S
# T2 construct: made in house; host or cells: E. coli BL21 (DE3)
# T2 sequence (P01116 1-188 isoform P01116-2 G12S): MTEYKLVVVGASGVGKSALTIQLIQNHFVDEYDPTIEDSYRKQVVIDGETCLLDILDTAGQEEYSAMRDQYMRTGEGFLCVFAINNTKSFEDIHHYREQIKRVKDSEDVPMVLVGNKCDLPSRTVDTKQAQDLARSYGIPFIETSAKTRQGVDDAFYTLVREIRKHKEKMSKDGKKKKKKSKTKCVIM
# In short: as §1
# [3] = target: T3, K-Ras G12V (Homo sapiens, UniProt P01116, G12V); test: HTRF resonance energy transfer assay, K-Ras G12V / SOS1 interaction; type: biochemical; details: HTRF assay of Example 5; read-out: IC50 against K-Ras G12V
# T3 construct: made in house; host or cells: E. coli BL21 (DE3)
# T3 sequence (P01116 1-188 isoform P01116-2 G12V): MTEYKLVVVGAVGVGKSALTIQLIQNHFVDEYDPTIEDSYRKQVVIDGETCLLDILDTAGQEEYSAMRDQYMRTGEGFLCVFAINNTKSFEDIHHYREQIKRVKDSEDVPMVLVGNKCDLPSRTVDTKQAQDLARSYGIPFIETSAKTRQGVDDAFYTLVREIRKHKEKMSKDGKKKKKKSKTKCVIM
# In short: as §1
# [4] = target: T4, K-Ras WT (Homo sapiens, UniProt P01116); test: HTRF resonance energy transfer assay, K-Ras WT / SOS1 interaction; type: biochemical; details: HTRF assay of Example 5; read-out: IC50 against K-Ras WT
# T4 construct: made in house; host or cells: E. coli BL21 (DE3)
# T4 sequence (P01116 1-188 isoform P01116-2): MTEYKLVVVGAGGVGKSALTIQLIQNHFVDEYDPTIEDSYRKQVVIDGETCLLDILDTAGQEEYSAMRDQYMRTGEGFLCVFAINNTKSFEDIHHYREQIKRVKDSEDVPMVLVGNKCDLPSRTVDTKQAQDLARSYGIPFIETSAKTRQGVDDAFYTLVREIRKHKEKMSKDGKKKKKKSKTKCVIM
# In short: as §1
# [5] = test system: A549 cells; test: Ras cellular assay, growth of cells with K-Ras G12S mutation (CellTiter-Glo); type: cell-based; details: Homo sapiens, cell growth, Example 9, G12S mutation, read-out: IC50 against A549 cells
# In short: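 A549 cells (K-Ras G12S) in RPMI-1640 with 10% heat-inactivated FBS, seeded e.g. 800 per well in standard or ultra-low-attachment 384-well plates, treated next day with a dilution series (e.g. 10-point, 3-fold). Viability by CellTiter-Glo luminescence about 6 days later; IC50 from four-parameter fit.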
# [6] = test system: SW620 cells; test: Ras cellular assay, growth of cells with K-Ras G12V mutation (CellTiter-Glo); type: cell-based; details: Homo sapiens, SW-620; cell growth, Example 9, G12V mutation; read-out: IC50 against SW620 cells
# In short: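 SW620 (K-Ras G12V) cells, e.g. 800/well in RPMI-1640 with 10% heat-inactivated FBS on standard or ultra-low attachment plates, were dosed the day after plating with e.g. a 10-point 3-fold series. Viability by CellTiter-Glo luminescence about 6 days later; IC50 from four-parameter fit.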
# T1 sequence (P01116 1-188 isoform P01116-2 G12D): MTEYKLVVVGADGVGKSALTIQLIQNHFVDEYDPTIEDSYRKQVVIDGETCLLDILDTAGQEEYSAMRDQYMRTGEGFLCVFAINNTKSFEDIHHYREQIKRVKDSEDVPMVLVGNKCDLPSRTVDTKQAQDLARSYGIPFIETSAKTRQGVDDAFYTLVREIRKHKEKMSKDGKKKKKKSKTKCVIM
Compound,IC50 [1],IC50 [2],IC50 [3],IC50 [4],IC50 [5],IC50 [6]
"N#Cc1c(N)sc2c(F)ccc(-c3c(Cl)c4c5c(nc(OC[C@@]67CCCN6C[C@H](F)C7)nc5c3F)N(C3CCN(C(=O)C5CC5C#N)CC3)CCO4)c12 (stereo partly drawn) [Compound 703, 2-amino-4-(8-chloro-4-(1-(2-cyanocyclopropane-1-carbonyl)piperidin-4-yl)-10-fluoro-2-(((2R,7aS)-2-fluorotetrahydro-1H-pyrrolizin-7a(5H)-yl)methoxy)-5,6-dihydro-4H-[1,4]oxazepino[5,6,7-de]quinazolin-9-yl)-7-fluorobenzo[b]thiophene-3-carbonitrile]",< 100 nM,< 100 nM,< 100 nM,< 100 nM,< 5000 nM,< 5000 nM
"CC1(O)CC(N2CCOc3c(Cl)c(-c4ccc(F)c5sc(N)c(C#N)c45)c(F)c4nc(OC[C@@]56CCCN5C[C@H](F)C6)nc2c34)C1 (stereo partly drawn) [Compound 708, 2-amino-4-(8-chloro-10-fluoro-2-(((2R,7aS)-2-fluorotetrahydro-1H-pyrrolizin-7a(5H)-yl)methoxy)-4-(3-hydroxy-3-methylcyclobutyl)-5,6-dihydro-4H-[1,4]oxazepino[5,6,7-de]quinazolin-9-yl)-7-fluorobenzo[b]thiophene-3-carbonitrile]",< 100 nM,< 100 nM,< 100 nM,< 100 nM,< 5000 nM,< 5000 nM
"N#Cc1c(N)sc2c(F)ccc(-c3c(Cl)c4c5c(nc(OC[C@@]67CCCN6C[C@H](F)C7)nc5c3F)N(C3CC5CCC3N5)CCO4)c12 (stereo partly drawn) [Compound 733, 4-(4-(7-azabicyclo[2.2.1]heptan-2-yl)-8-chloro-10-fluoro-2-(((2R,7aS)-2-fluorotetrahydro-1H-pyrrolizin-7a(5H)-yl)methoxy)-5,6-dihydro-4H-[1,4]oxazepino[5,6,7-de]quinazolin-9-yl)-2-amino-7-fluorobenzo[b]thiophene-3-carbonitrile]",< 100 nM,< 100 nM,< 100 nM,< 100 nM,< 5000 nM,< 5000 nM
"N#Cc1c(N)sc2c(F)ccc(-c3c(Cl)c4c5c(nc(OC[C@@]67CCCN6C[C@H](F)C7)nc5c3F)N(C3CC(N)C3)CCO4)c12 (stereo partly drawn) [Compound 734, 2-amino-4-(4-(3-aminocyclobutyl)-8-chloro-10-fluoro-2-(((2R,7aS)-2-fluorotetrahydro-1H-pyrrolizin-7a(5H)-yl)methoxy)-5,6-dihydro-4H-[1,4]oxazepino[5,6,7-de]quinazolin-9-yl)-7-fluorobenzo[b]thiophene-3-carbonitrile]",< 100 nM,< 100 nM,< 100 nM,< 100 nM,< 5000 nM,< 5000 nM
"CC1Oc2c(Cl)c(-c3ccc(F)c4sc(N)c(C#N)c34)c(F)c3nc(OC[C@@]45CCCN4C[C@H](F)C5)nc(c23)N([C@@H]2CCOC2)C1C (stereo partly drawn) [Compound 741, 2-amino-4-(8-chloro-10-fluoro-2-(((2R,7aS)-2-fluorotetrahydro-1H-pyrrolizin-7a(5H)-yl)methoxy)-5,6-dimethyl-4-((R)-tetrahydrofuran-3-yl)-5,6-dihydro-4H-[1,4]oxazepino[5,6,7-de]quinazolin-9-yl)-7-fluorobenzo[b]thiophene-3-carbonitrile]",< 100 nM,< 100 nM,< 100 nM,< 100 nM,< 5000 nM,< 5000 nM
"N#Cc1c(N)sc2c(F)ccc(-c3c(Cl)c4c5c(nc(OC[C@@]67CCCN6C[C@H](F)C7)nc5c3F)N(C3CCC5(C3)CN(C(=O)C3CC3(F)F)C5)CCO4)c12 (stereo partly drawn) [Compound 746, 2-amino-4-(8-chloro-4-(2-(2,2-difluorocyclopropane-1-carbonyl)-2-azaspiro[3.4]octan-6-yl)-10-fluoro-2-(((2R,7aS)-2-fluorotetrahydro-1H-pyrrolizin-7a(5H)-yl)methoxy)-5,6-dihydro-4H-[1,4]oxazepino[5,6,7-de]quinazolin-9-yl)-7-fluorobenzo[b]thiophene-3-carbonitrile]",< 100 nM,< 100 nM,< 100 nM,< 100 nM,< 5000 nM,< 5000 nM
"CC(=O)NC1CCC(N2CCOc3c(Cl)c(-c4ccc(F)c5sc(N)c(C#N)c45)c(F)c4nc(OC[C@@]56CCCN5C[C@H](F)C6)nc2c34)C1 (stereo partly drawn) [Compound 781, N-(3-(9-(2-amino-3-cyano-7-fluorobenzo[b]thiophen-4-yl)-8-chloro-10-fluoro-2-(((2R,7aS)-2-fluorotetrahydro-1H-pyrrolizin-7a(5H)-yl)methoxy)-5,6-dihydro-4H-[1,4]oxazepino[5,6,7-de]quinazolin-4-yl)cyclopentyl)acetamide]",< 100 nM,< 100 nM,< 100 nM,< 100 nM,< 5000 nM,< 5000 nM
"N#Cc1c(N)sc2c(F)ccc(-c3c(Cl)c4c5c(nc(OC[C@@]67CCCN6C[C@H](F)C7)nc5c3F)N(C3CCOCC3)CCO4)c12 [Compound 813, 2-amino-4-(8-chloro-10-fluoro-2-(((2R,7aS)-2-fluorotetrahydro-1H-pyrrolizin-7a(5H)-yl)methoxy)-4-(tetrahydro-2H-pyran-4-yl)-5,6-dihydro-4H-[1,4]oxazepino[5,6,7-de]quinazolin-9-yl)-7-fluorobenzo[b]thiophene-3-carbonitrile]",< 100 nM,< 100 nM,< 100 nM,< 100 nM,< 5000 nM,< 5000 nM
"N#Cc1c(N)sc2c(F)ccc(-c3c(Cl)c4c5c(nc(OC[C@@]67CCCN6C[C@H](F)C7)nc5c3F)N(C3CCC(NC=O)C3)CCO4)c12 (stereo partly drawn) [Compound 829, N-(3-(9-(2-amino-3-cyano-7-fluorobenzo[b]thiophen-4-yl)-8-chloro-10-fluoro-2-(((2R,7aS)-2—fluorotetrahydro-1H-pyrrolizin-7a(5H)-yl)methoxy)-5,6-dihydro-4H-[1,4]oxazepino[5,6,7-de]quinazolin-4-yl)cyclopentyl)formamide]",< 100 nM,< 100 nM,< 100 nM,< 100 nM,< 5000 nM,< 5000 nM
"N#Cc1c(N)sc2c(F)ccc(-c3c(Cl)c4c5c(nc(OC[C@@]67CCCN6C[C@H](F)C7)nc5c3F)N(C3CC(NC=O)C3)CCO4)c12 (stereo partly drawn) [Compound 836, N-(3-(9-(2-amino-3-cyano-7-fluorobenzo[b]thiophen-4-yl)-8-chloro-10-fluoro-2-(((2R,7aS)-2-fluorotetrahydro-1H-pyrrolizin-7a(5H)-yl)methoxy)-5,6-dihydro-4H-[1,4]oxazepino[5,6,7-de]quinazolin-4-yl)cyclobutyl)formamide]",< 100 nM,< 100 nM,< 100 nM,< 100 nM,< 5000 nM,< 5000 nM
"N#CCCCN1CCOc2c(Cl)c(-c3ccc(F)c4sc(N)c(C#N)c34)c(F)c3nc(OC[C@@]45CCCN4C[C@H](F)C5)nc1c23 [Compound 837, 2-amino-4-(8-chloro-4-(3-cyanopropyl)-10-fluoro-2-(((2R,7aS)-2-fluorotetrahydro-1H-pyrrolizin-7a(5H)-yl)methoxy)-5,6-dihydro-4H-[1,4]oxazepino[5,6,7-de]quinazolin-9-yl)-7-fluorobenzo[b]thiophene-3-carbonitrile]",< 100 nM,< 100 nM,< 100 nM,< 100 nM,< 5000 nM,< 5000 nM
"N#Cc1c(N)sc2c(F)ccc(-c3c(Cl)c4c5c(nc(OC[C@@]67CCCN6C[C@H](F)C7)nc5c3F)N(C3CCCCC3O)CCO4)c12 (stereo partly drawn) [Compound 838, 2-amino-4-(8-chloro-10-fluoro-2-(((2R,7aS)-2-fluorotetrahydro-1H-pyrrolizin-7a(5H)-yl)methoxy)-4-(2-hydroxycyclohexyl)-5,6-dihydro-4H-[1,4]oxazepino[5,6,7-de]quinazolin-9-yl)-7-fluorobenzo[b]thiophene-3-carbonitrile]",< 100 nM,< 100 nM,< 100 nM,< 100 nM,< 5000 nM,< 5000 nM
"C[C@H](Oc1nc2c3c(c(Cl)c(-c4ccc(F)c5sc(N)c(C#N)c45)c(F)c3n1)OCCN2C1CCN(C(=O)C2CC2C#N)CC1)[C@@H]1CCCN1C (stereo partly drawn) [Compound 839, 2-amino-4-(8-chloro-4-(1-(trans-2-cyanocyclopropane-1-carbonyl)piperidin-4-yl)-10-fluoro-2-((S)-1-((S)-1-methylpyrrolidin-2-yl)ethoxy)-5,6-dihydro-4H-[1,4]oxazepino[5,6,7-de]quinazolin-9-yl)-7-fluorobenzo[b]thiophene-3-carbonitrile]",< 100 nM,< 100 nM,< 100 nM,< 100 nM,< 5000 nM,< 5000 nM
